“And” between values parts separate entries of the source, which are not always exact repeats. Equal entries are not always repeated.
How the values were obtained:
[1] = system: MCF-7/ADR cells; assay: MTT assay, doxorubicin-resistant cells; type: cell-based; details: Homo sapiens, NCI/ADR-RES, 72 h treatment, n = 3, read-out: IC50 (µM ± SD) MCF-7/ADR
Experimental: MCF-7 (human breast adenocarcinoma), A2780 (human ovarian cancer) and HCT116 (human colorectal carcinoma), and MRC-5 (normal foetal lung fibroblast) cell lines were bought from the ATCC and were cultured in flasks which were incubated at 37 °C in an atmosphere of 5% CO2, 95% air, and 100% relative humidity, to maintain continuous logarithmic growth. MCF-7, A2780, and HCT116 were maintained in RPMI-1640 media (100 U/mL penicillin, 100 µg/mL streptomycin, and 10% foetal bovine serum, Gibco, Carlsbad, CA). MRC-5 cells were maintained in EMEM (100 U/mL penicillin, 100 µg/mL streptomycin, and 10% foetal bovine serum, Gibco, Carlsbad, CA). Doxorubicin (5 μg/mL, for three months) added for RPMI-1640 media containing MCF7 cells was used to develop doxorubicin-resistant MCF7/ADR cells. All cancer and normal cell lines were cultured according to our previous report. Cells were used within 10–20 passages and were checked for mycoplasma every 6 months, by measuring the bioluminescence (Myco Alert sample detection kit; Lonza, Basel, Switzerland) using the multiplate reader (Synergy HT, BioTek, Winooski, VT).
The MTT assay was used to measure the cytotoxicity and growth inhibitory activities and cytotoxicity of the new compounds according to our previous report[13]^,[17]. Cells from flasks of 70–80% confluency were separately seeded in 96-well flat-bottom microculture plates (Nalgene-Nunc, Thermo Fisher Scientific, Roskilde, Denmark) at a density of 3 × 10^3 cells (MCF-7, A2780, and MRC-5), 1 × 10^4 cells (HCT116), to a volume of 180 μL/well of culture medium. A Neubauer haemocytometer was used for cell counting. Cells were incubated at 37 °C overnight to allow attachment to the wells. The final concentrations of each compound in wells were: 0–50 μM in 200 μL of media (DMSO 0.1%). Lapatinib (Cayman, Ann Arbor, MI) was used as a positive control at the same final concentrations. […] Cytotoxicity of the new compounds was calculated after treatment of cancer/normal cell lines for 72 h. The absorbance of the reduced MTT was determined using a microplate reader A570 nm. […]

[2] = system: MCF-7 cells; assay: Annexin V-FITC/PI apoptosis assay; type: cell-based, human; details: 0.1 μM, 24 h; for % Cell number, Early apoptosis / % Cell number, Late apoptosis / % Cell number, Live cells / % Cell number, Necrosis: n = 3
Experimental: The ability of compounds 16a,b,d to induce apoptotic changes in MCF-7 cells was determined by Annexin V-FITC/PI staining according to the previous report[13]^,[18]^,[19]. Additionally, the morphological changes in MCF-7 cells were examined by microscope. Following treatment with the test compounds at 0.1 µM for 24 h, the cells were stained with annexin V and PI. The determination of necrotic, early/late apoptotic changes were performed by flow cytometer (FC500, Beckman Coulter, Miami, FL).
The cytotoxic activity of our previously reported pyrrolizine-5-carboxamide 9a was mediated by the induction of apoptosis in MCF-7 cells[13]^,[19]. […] The cancer cells were treated with the test compounds (0.1 μM) for 24 h. The induction of apoptosis in MCF-7 cells by the selected compounds was investigated using annexin V fluorescein isothiocyanate (FITC)/propidium iodide (PI) staining assay. The assay procedures were the same as those applied in the previous report. Compound 16a increased apoptosis (early and late events) in MCF-7 cells to 19% compared to 1% in the control. Moreover, compound 16b caused a significant increase of MCF-7 apoptotic cells which was similar to the effect of compound 16a.

[3] = system: MCF-7 cells; assay: Cell cycle analysis (flow cytometry); type: cell-based, human; details: 0.1 μM, 24 h
Experimental: Cell cycle perturbations of MCF-7 cells treated with compounds 16a,b,d at 0.1 µM concentration for 24 h was determined using FC500 flow cytometer (FC500, Beckman Coulter, Miami, FL). The cell cycle analysis was performed according to our previous report.
Based on the results of the MTT assay (Table 1), compounds 16a,b,d were selected to investigate their effect on cell cycle phases of MCF-7 cells. The cancer cells were treated with the test compounds at 0.1 μM and vehicle (control) for 24 h according to the previous report. Cell cycle analysis was performed using FC500 flow cytometer (FC500, Beckman Coulter, Miami, FL). […] On the other hand, the S phase was the least affected with less than a twofold decrease.

[4] = target: T1, CDK-2 (Homo sapiens, UniProt P24941); assay: CDK-2 inhibitory assay (ADP-Glo); type: biochemical; details: three determinations, read-out: IC50 (μM) ± SEM CDK-2
T1 construct: purchased Promega, Madison, WI
Source text: The assay was done according to the manufacturer’s instructions and as described in the previous report[21].

[5] = target: EGFR (Homo sapiens, UniProt P00533); assay: Kinase profiling test; type: biochemical; details: stated as inhibition, read-out: inhibition% against EGFR
Experimental: The test was performed using the radiolabeled ATP determination method (KINEXUS Bioinformatics Corporation, Vancouver, Canada). The test was performed following the previous reports[13]^,[20].
The three compounds were tested at the same concentration (10 μM) against the same 20 kinases used in the previous report. The test was performed by KINEXUS Bioinformatics Corporation (Vancouver, Canada), following previous reports[13]^,[20].

[6] = system: microtubule cytoskeleton of MCF-7 cells; assay: Immunofluorescence staining of microtubules; type: cell-based, human; details: 5 μM, 24 h

Sequence of EGFR (P00533 25-1210): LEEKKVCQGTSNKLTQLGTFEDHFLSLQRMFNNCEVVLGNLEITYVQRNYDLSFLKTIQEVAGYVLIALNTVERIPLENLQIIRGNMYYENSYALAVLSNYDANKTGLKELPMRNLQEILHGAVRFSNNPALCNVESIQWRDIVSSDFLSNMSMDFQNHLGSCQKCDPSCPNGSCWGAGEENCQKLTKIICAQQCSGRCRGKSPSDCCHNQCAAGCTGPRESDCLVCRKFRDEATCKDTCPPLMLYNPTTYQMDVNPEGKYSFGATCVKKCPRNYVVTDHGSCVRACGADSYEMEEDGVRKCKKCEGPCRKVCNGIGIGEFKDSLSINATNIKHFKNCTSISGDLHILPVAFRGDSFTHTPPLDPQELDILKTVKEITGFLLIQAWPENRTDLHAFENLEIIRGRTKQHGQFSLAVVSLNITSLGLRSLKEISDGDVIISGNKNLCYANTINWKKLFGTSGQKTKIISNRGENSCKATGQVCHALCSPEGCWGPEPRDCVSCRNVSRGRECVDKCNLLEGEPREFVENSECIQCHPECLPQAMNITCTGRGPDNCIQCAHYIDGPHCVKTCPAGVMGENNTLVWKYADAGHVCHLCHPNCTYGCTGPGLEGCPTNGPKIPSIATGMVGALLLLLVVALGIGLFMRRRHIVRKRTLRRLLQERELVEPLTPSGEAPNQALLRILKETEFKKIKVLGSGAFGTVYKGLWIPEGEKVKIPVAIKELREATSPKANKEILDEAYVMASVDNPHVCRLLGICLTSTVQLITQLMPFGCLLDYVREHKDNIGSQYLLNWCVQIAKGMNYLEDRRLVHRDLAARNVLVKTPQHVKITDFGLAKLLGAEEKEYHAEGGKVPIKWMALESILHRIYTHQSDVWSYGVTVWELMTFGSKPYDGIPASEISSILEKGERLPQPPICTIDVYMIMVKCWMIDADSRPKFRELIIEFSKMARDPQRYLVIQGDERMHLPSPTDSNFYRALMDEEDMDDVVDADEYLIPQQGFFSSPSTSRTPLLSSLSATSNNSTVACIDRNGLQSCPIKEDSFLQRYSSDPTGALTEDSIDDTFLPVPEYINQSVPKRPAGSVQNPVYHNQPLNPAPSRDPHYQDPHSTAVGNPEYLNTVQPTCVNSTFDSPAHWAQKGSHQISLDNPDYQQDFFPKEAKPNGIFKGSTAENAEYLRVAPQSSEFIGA

IC50 [1] [µM] | IC50 [4] [µM] | inhibition at 10 µM [5] [%] | SMILES | % Cell number, Early apoptosis [2] [%] | % Cell number, Late apoptosis [2] [%] | % Cell number, Live cells [2] [%] | % Cell number, Necrosis [2] | Cell cycle stage % G1 [3] [%] | Cell cycle stage % G2/M [3] | Cell cycle stage % S [3] [%] | Cell cycle stage % preG1 [3] | apoptosis (early and late events) ([2]; control 1%) [%] | effect on cellular microtubules [6]
0.52 ± 0.066 | 0.113 ± 0.017 | – | COc1cc(C(=O)Nc2c(C#N)c3n(c2C(=O)Nc2ccc(Cl)cc2)CCC3)cc(OC)c1OC [16d, N-(4-Chlorophenyl)-7-cyano-6-(3,4,5-trimethoxybenzamido) -2,3-dihydro-1H-pyrrolizine-5-carboxamide] | 7.50 ± 0.95 | 19.94 ± 1.30 | 71.99 ± 2.88 | 2.51% and 2.51 ± 0.45% | 5.46 ± 0.87 | 45.62% and 45.62 ± 5.25% | 24.92 ± 2.22 | 27.56% and 27.56 ± 3.93% | – | –
1.57 ± 0.04 | 0.086 ± 0.016 | 30 | COc1cc(C(=O)Nc2c(C#N)c3n(c2C(=O)Nc2ccccc2)CCC3)cc(OC)c1OC [16a, 7-Cyano-N-phenyl-6-(3,4,5-trimethoxybenzamido)-2,3-dihydro-1H-pyrrolizine-5-carboxamide] | 8.40 ± 0.87 | 10.70 ± 1.06 | 77.40 ± 1.39 | 3.50% and 3.50 ± 0.37% | 10.69 ± 1.32 | 37.38 ± 4.66% | 25.93 ± 3.47 | 26.92 ± 3.07% | 19 | –
6.26 ± 0.71 | 0.265 ± 0.021 | 11 | COc1cc(C(=O)Nc2c(C#N)c3n(c2C(=O)Nc2ccc(C)cc2)CCC3)cc(OC)c1OC [16b, 7-Cyano-N-(p-tolyl)-6-(3,4,5-trimethoxybenzamido)-2,3-dihydro-1H-pyrrolizine-5-carboxamide] | 6.22 ± 0.22 | 13.01 ± 1.02 | 75.00 ± 2.90 | 7.11% and 7.11 ± 0.80% | 13.19 ± 2.95 | 35.35 ± 4.19% | 28.46 ± 2.79 | 22.43 ± 2.24% | – | shrank and partially disorganised microtubules which split partially into fragments

From PMC8221158, “Novel pyrrolizines bearing 3,4,5-trimethoxyphenyl moiety: design, synthesis, molecular docking, and biological evaluation as potential multi-target cytotoxic agents” (Journal of Enzyme Inhibition and Medicinal Chemistry, 2021)
